Patent publication US20210236512A1 (ZARODEX THERAPEUTICS LIMITED, priority 2018, published 2021)

Columns and labels:
[1] = system: total peripheral blood B-cells isolated from healthy donors; assay type: cell-based, human; settings: clozapine 25-350 ng/ml, norclozapine 15-200 ng/ml, haloperidol 2-25 ng/ml; for Ability of differentiated ASCs to secrete antibody (total IgM/IgG ELISA): day 6 and day 9
Experimental: The experiment was performed from four independent donors.

[2] = in vivo; cited from earlier work
[3] = system: B cell subsets in bone marrow; experiment: Wild type mouse study: bone marrow B cell immunophenotyping by flow cytometry; settings: haloperidol 1 mg/kg IP, 21 days
[4] = system: B cell subsets and T cells in spleen; experiment: Wild type mouse study: spleen immunophenotyping by flow cytometry; settings: haloperidol 1 mg/kg

With `Clc1ccc2c(c1)N=C(N1CCNCC1)c1ccccc1N2` [norclozapine] the “Functional or phenotypic maturation of activated B cells to an early PC state” value [1] was “no consistent inhibitory effect” and the “Ability of differentiated ASCs to secrete antibody (total IgM/IgG ELISA)” value [1] was “no consistent effect”.
In the case of `O=C(CCCN1CCC(O)(c2ccc(Cl)cc2)CC1)c1ccc(F)cc1` [Haloperidol, haloperidol], the LD50 [2] is listed as 30 mg/kg, the “Early developing B cell subsets in bone marrow (overall B, pre-pro B, pro-B)” value [3] is listed as “no significant effect” and the “Effect on long-lived plasma cells in the bone marrow” value [3] is listed as “no effect”. The “Reduction of activated T cells (B220+TCR-b+) in spleen” value [4] was “modestly apparent”, the “Impact on B cell subpopulations” value ([4]; comparator) was “not observed” and the “Functional or phenotypic maturation of activated B cells to an early PC state” value [1] was “no consistent inhibitory effect”. For the same compound, the “Ability of differentiated ASCs to secrete antibody (total IgM/IgG ELISA)” value [1] was “no consistent effect”.
